Experimental data published in patent US20250177357A1, “METHODS FOR TREATING HYPERTROPHIC CARDIOMYOPATHY” (priority 2021, published 2025).

What was measured:
[1] = Phase 1 plasma pharmacokinetics, multiple-ascending dose cohorts; format: in vivo, human; conditions: for CLss/F, mean ± SD: n = 6
Procedure: Multiple-ascending dose (MAD) cohorts. The MAD cohorts also used a randomized, double-blind, placebo-controlled, sequential design.
Pharmacokinetic analyses. For all study groups, blood samples for PK assessment were obtained pre-dose, up to 12 times daily on day 1, and then at regular intervals throughout the study. Blood samples were collected according to the following schedule: SAD Cohorts: Day 1: pre-dose and 0.25, 0.5, 1, 1.5, 2, 2.5, 3, 4, 6, 8, 12, 16, 24, 36, 48, 72, 96, and 216 h post dose. MAD Cohorts (14-day Dosing): Day 1: pre-dose and 0.25, 0.5, 1, 1.5, 2, 2.5, 3, 4, 6, 8, and 12 h post dose; Days 2, 4, 5, 6, and 9: pre-dose (corresponding to trough samples following dosing on days 1, 3, 4, 5, and 8) and 1.5 h post dose; Days 3, 7, 8, 10, 11, 12, and 13: pre-dose (corresponding to trough samples following dosing on days 2, 6, 7, 9, 10, 11, and 12); Day 14: pre-dose and 0.25, 0.5, 1.5, 2, 2.5, 3, 4, 6, 8, 12, 16, 24, 36, 48, 72, and 168 h post dose. MAD Cohort (17-Day Dosing): Day 1: pre-dose and 0.25, 0.5, 1, 1.5, 2, 2.5, 3, 4, 6, 8, and 12 h post dose; Days 2, 4, 5, 6, and 9: pre-dose (corresponding to trough samples following dosing on days 1, 3, 4, 5, and 8) and 1.5 h post dose; Days 3, 7, 8, 10, 11, 12, 13, 14, 15, and 16: pre-dose (corresponding to trough samples following dosing on days 2, 6, 7, 9, 10, 11, and 12); Day 17: pre-dose and 0.25, 0.5, 1.5, 2, 2.5, 3, 5, 7, 9, 12, 24, 36, 48, 72, and 168 h post dose. CYPD6-PM Cohort: Day 1: pre-dose and 0.25, 0.5, 1, 1.5, 2, 2.5, 3, 4, 6, 8, 12, 16, 24, 36, 48, 72, 96, 216, 312, and 552 h post dose. Food-Effect Cohort: Day 1: pre-dose and 0.25, 0.5, 1, 1.5, 2, 2.5, 3, 4, 6, 8, 12, 16, 24, 36, 48, 72, 96, 144, and 216 h post dose. Standard non-compartmental methods were used to calculate PK parameters using Phoenix® WinNonlin® Version 7.0; actual sample collection times were utilized.
For the MAD cohort, the parameters were AUC24 and Cmax on day 1, plus AUC to the […] (AUCtau) and Cmax on day 14 or 17. The statistical linear relationship between the ln-transformed PK parameters and the ln-transformed dose was verified by including the quadratic (ln Dose)^2 and cubic (ln Dose)^3 effects. […] The dose-proportionality analysis was performed using SAS® PROC MIXED.
An analysis of variance (ANOVA) model was conducted separately for each dose level; day was included as the fixed effect. Helmert contrasts were developed such that each time-point was compared with the mean of the subsequent time-points.

[2] = Phase 1 plasma pharmacokinetics, CYP2D6 poor metabolizer cohort; format: in vivo, human; conditions: CYP2D6 poor metabolizers, single 10 mg, n = 7
Procedure: CYP2D6 poor metabolizer cohort.
CYP2D6 genotypes were determined at screening for all study participants; those identified as CYP2D6-PMs were excluded from the SAD and MAD cohorts but were invited to participate in the CYP2D6-PM cohort. The first individual in the CYP2D6-PM cohort was dosed after the SAD 25-mg cohort (FIG. 2). […] Nine participants were randomized (7:2) with a sentinel dosing group consisting of the first 2 participants treated.
Pharmacokinetic analyses. For all study groups, blood samples for PK assessment were obtained pre-dose, up to 12 times daily on day 1, and then at regular intervals throughout the study. Blood samples were collected according to the following schedule: SAD Cohorts: Day 1: pre-dose and 0.25, 0.5, 1, 1.5, 2, 2.5, 3, 4, 6, 8, 12, 16, 24, 36, 48, 72, 96, and 216 h post dose. MAD Cohorts (14-day Dosing): Day 1: pre-dose and 0.25, 0.5, 1, 1.5, 2, 2.5, 3, 4, 6, 8, and 12 h post dose; Days 2, 4, 5, 6, and 9: pre-dose (corresponding to trough samples following dosing on days 1, 3, 4, 5, and 8) and 1.5 h post dose; Days 3, 7, 8, 10, 11, 12, and 13: pre-dose (corresponding to trough samples following dosing on days 2, 6, 7, 9, 10, 11, and 12); Day 14: pre-dose and 0.25, 0.5, 1.5, 2, 2.5, 3, 4, 6, 8, 12, 16, 24, 36, 48, 72, and 168 h post dose. […]

CCc1nc(-c2ccc3c(c2)CC[C@H]3NC(=O)c2cnn(C)c2)no1 [aficamten, (R)—N-(5-(5-ethyl-1,2,4-oxadiazol-3-yl)-2,3-dihydro-1H-inden-1-yl)-1-methyl-1H-pyrazole-4-carboxamide]
Steady state achieved by the end of day ([1]; 5-mg and 7.5-mg doses once daily): 12 days
Steady state achieved by the end of day ([1]; 10-mg dose once daily): 10 days
CLss/F, mean ± SD ([1]; Day 14, 5 mg qd × 14 Days): 3.9 ± 0.9 L/h
CLss/F, mean ± SD ([1]; Day 14, 10 mg qd × 14 Days): 3.9 ± 0.8 L/h
CLss/F, mean ± SD ([1]; Day 17, 7.5 mg qd × 17 Days): 3.1 ± 0.7 L/h
Time within which steady state is achieved ([1]; once-daily dosing): ≤ 2 weeks
CL/F, mean ± SD [2]: 3.6 ± 1.4 L/h
